According to US12558342B2, “2-[2-({12,12-dimethyl-4-oxo-6-phenyl-3,11-dioxatricyclo[8.4.0.0,2,7]tetradeca-1,5,7,9-tetraen-8-yl}oxy)acetamido]benzamide and derivatives as inhibitor of clock:bmal1 interaction for the treatment of circadian rhythm diseases and disorders” (KOC UNIVERSITESI, priority 2019, dated 2026):

Tests used:
[1] = tested on: PER2, NPAS2, BMAL1 and CRY1; test: Cytosol-nuclear fractionation of U2OS cells, other clock proteins; type: cell-based, human; settings: 20 μM, two days
Description: U2 OS cells treated with 20 μM CLK8 and 0.5% DMSO were used for fractionation analysis. The 4×10^5 was suspended in 500 ul cytosolic lysis buffer (10 mM HEPES pH 7,9, 10 mM KCl, 0.1 mM EDTA, 0.05% NP40 with protease inhibitors) and incubated on ice for 10 minutes. The lysate was centrifuged for 3 minutes at 3000 rpm at 4° C. The resulting supernatant was centrifuged one more time and supernatant collected as cytosolic fraction. On the other hand, the resulting pellet from lysate centrifugation was suspended in nuclear lysis buffer (20 mM HEPES pH 7.9, 0.4 M NaCl, 1 mM EDTA, 10% glycerol with protease inhibitors) and sonicated 2 times 10 seconds with 60% power. After centrifuge at 15 000 g for 5 minutes at 4° C., supernatant was collected as nuclear fraction. Collected fractions were used for Western Blot analysis. Fractionation efficiency was checked with Western Blot by using tubulin (Sigma T9026) as cytosolic marker and Histone-H3 (abcam ab1791) as nuclear marker.

NAV2 = target: T1, NAV2 (Homo sapiens, UniProt Q8IVL1); test: LC-MS/MS of pull-down precipitates, NAV2; type: binding; settings: Competitor 0 μM
T1 construct: endogenous in cells; host or cells: HEK 293T
T1 sequence (Q8IVL1 whole entry): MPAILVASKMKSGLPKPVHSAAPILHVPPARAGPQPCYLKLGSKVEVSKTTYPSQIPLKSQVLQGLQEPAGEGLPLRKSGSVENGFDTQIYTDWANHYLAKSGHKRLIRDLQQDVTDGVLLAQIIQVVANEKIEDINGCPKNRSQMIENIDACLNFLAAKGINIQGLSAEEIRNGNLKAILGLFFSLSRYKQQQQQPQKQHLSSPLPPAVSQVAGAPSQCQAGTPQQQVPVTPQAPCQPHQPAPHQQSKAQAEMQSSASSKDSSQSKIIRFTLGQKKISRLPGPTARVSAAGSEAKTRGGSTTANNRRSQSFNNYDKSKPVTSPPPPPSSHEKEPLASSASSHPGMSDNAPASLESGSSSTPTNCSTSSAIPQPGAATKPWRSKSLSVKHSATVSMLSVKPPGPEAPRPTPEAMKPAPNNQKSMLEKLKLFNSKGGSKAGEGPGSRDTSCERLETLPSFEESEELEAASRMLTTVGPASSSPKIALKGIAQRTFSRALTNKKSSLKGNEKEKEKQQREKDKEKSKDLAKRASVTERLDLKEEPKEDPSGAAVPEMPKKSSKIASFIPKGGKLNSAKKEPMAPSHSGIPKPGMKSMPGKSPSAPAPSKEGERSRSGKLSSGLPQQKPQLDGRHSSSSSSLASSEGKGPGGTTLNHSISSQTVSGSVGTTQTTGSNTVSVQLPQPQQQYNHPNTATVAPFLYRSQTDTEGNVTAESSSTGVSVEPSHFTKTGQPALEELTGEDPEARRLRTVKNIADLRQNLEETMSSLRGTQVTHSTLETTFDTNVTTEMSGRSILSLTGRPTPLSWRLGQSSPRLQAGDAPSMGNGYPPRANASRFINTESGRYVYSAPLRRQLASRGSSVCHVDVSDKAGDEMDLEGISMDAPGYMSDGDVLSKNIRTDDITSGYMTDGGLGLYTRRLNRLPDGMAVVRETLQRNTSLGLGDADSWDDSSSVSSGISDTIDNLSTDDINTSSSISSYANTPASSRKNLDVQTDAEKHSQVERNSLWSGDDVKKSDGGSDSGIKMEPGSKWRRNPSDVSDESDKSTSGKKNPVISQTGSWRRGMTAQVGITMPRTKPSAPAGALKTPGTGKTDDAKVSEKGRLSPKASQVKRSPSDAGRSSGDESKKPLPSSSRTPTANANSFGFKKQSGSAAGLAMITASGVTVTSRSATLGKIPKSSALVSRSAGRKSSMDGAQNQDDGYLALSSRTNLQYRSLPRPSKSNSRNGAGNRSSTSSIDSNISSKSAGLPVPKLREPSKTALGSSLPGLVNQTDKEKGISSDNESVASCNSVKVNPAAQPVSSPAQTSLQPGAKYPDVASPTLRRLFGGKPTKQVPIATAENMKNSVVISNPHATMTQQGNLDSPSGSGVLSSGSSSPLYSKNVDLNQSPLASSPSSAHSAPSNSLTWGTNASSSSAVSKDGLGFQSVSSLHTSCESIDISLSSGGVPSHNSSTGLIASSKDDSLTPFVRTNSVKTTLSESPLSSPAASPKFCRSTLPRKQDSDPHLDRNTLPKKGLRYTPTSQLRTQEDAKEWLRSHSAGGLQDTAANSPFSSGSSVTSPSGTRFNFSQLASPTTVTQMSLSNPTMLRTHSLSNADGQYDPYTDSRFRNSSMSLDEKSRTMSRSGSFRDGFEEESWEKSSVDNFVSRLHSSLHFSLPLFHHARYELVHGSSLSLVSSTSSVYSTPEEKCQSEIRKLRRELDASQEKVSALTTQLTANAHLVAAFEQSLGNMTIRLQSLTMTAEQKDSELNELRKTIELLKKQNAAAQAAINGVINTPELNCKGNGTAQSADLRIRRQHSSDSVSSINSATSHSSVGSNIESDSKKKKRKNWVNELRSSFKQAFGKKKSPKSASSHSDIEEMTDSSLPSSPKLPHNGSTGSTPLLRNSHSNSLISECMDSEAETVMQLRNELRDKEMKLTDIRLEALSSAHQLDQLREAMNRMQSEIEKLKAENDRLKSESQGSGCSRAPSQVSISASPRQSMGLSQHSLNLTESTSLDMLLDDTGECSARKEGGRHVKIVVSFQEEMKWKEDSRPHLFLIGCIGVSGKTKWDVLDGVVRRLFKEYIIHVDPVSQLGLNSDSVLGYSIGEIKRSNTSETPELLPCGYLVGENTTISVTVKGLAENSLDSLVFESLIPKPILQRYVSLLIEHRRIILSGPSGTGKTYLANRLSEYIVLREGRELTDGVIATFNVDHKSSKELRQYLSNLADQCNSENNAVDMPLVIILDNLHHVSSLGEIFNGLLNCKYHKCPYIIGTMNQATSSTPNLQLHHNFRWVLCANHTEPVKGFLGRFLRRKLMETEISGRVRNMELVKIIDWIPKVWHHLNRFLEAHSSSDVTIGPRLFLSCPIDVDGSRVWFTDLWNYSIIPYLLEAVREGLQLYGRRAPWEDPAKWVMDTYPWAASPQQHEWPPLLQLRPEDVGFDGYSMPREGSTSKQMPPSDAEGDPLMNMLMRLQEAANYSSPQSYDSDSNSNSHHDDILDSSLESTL
Description: HEK293T cells were transiently transfected with tag-free hsClock and mBmal1. After 48 hours of transfection, cells were harvested and whole cell lysate was prepared with ice-cold lysis buffer (50 mM Tris-HCl pH 7.4, 2 mM EDTA, 1 mM MgCl2, 0.2% NP-40, 1 mM sodium orthovanadate, 1 mM sodium fluoride and protease inhibitor cocktail) followed by centrifugation at 7000×g at 4° C. for 10 minutes. Lysate was diluted with ice-cold 2× binding buffer (100 mM Tris-HCl pH 7.4, 300 mM NaCl, 0.2% NP-40, 2 mM sodium orthovanadate, 2 mM sodium fluoride, and protease inhibitor cocktail) 27. The lysate was divided into three fractions to be treated with either DMSO, or 20 μM of bitoinylated-CLK8 (bait) with or without 200 μM CLK8 (competitor). […]
The next step was to check for off-targets of CLK8. […] Since the amount of precipitated endogenous CLOCK was insufficient to be detected in LC-MS/MS, whole cell lysate of HEK 293T cells overexpressing CLOCK and BMAL1 were used for LC-MS/MS. We determined proteins that potentially bind to CLK8 by utilizing a minimum threshold for peptide spectrum matches and coverage equal to those of the main target, CLOCK. We also excluded proteins that have been detected in negative controls of the CRAPome database (32), assuming them as abundant sticky proteins. […] BMAL1 was detected in lower amounts when a competitor was present. […]

Per1::dluc NIH 3T3 cells = test: Real-time monitoring of circadian rhythm, Per1::dluc NIH 3T3; type: cell-based, mouse
Description: We used Bmal1::dluc U2-OS and Per1::dluc NIH 3T3, and continuously monitored the bioluminescence to record circadian rhythm. This experiment was performed in 96-well plates (triplicates) and 35-mm dishes (duplicates) in the secondary screen and detailed characterization steps respectively. Briefly, cells were seeded to reach confluency. A day after, the medium was replaced with DMEM containing 0.1 μM Dexamethasone to synchronize cells. […] The 96-well plates were covered and bioluminescence was monitored by Synergy H1 Hybrid Multi-Mode Reader every 32 minutes. […] Bioluminescence was recorded every 10 minutes for 4-6 days. […] The first day's data was excluded from the analysis due to transient perturbations of luminescence after the medium change.
We used Bmal1::dluc U2-OS and Per1::dluc NIH 3T3, and continuously monitored the bioluminescence to record circadian rhythm. […] The 96-well plates were covered and bioluminescence was monitored by Synergy H1 Hybrid Multi-Mode Reader every 32 minutes. […] Bioluminescence was recorded every 10 minutes for 4-6 days. […] The first day's data was excluded from the analysis due to transient perturbations of luminescence after the medium change.

Peptide spectrum matches, NAV2 (NAV2): 263
SMILES: CC1(C)CCc2c(cc(OCC(=O)Nc3ccccc3C(N)=O)c3c(-c4ccccc4)cc(=O)oc23)O1 [CLK8, 2-[2-({12,12-dimethyl-4-oxo-6-phenyl-3,11-dioxatricyclo [8.4.0.0,2,7]tetradeca-1,5,7,9-tetraen-8-yl}oxy)acetamido] benzamide]
level of PER2, NPAS2, BMAL1 and CRY1 [1]: comparable to the control samples | period of circadian rhythm (Per1::dluc NIH 3T3 cells): no period changes | amplitude of circadian rhythm (Per1::dluc NIH 3T3 cells; dose dependent): enhances the amplitude
